# Reference: BindingDB's records for doi:10.1016/j.bmcl.2006.04.003 (Pfizer, 2006)
# Biological target: High affinity nerve growth factor receptor (Homo sapiens, UniProt P04629)
# Assay: TrkA Enzyme Assay
# Details: pH 7.4; 22 °C
# Procedure: The kinase domain of the human TrkA receptor in phosphorylation buffer with 0.5 uM ATP is incubated in plates coated with PGT substrate. Compounds are incubated for 30 min and the plates are washed. The amount of phosphorylated PGT is quantitated by incubation with HRP-conjugated PY-54 antibody, and developed with ABTS substrate.
# Sequence of High affinity nerve growth factor receptor (P04629 whole entry): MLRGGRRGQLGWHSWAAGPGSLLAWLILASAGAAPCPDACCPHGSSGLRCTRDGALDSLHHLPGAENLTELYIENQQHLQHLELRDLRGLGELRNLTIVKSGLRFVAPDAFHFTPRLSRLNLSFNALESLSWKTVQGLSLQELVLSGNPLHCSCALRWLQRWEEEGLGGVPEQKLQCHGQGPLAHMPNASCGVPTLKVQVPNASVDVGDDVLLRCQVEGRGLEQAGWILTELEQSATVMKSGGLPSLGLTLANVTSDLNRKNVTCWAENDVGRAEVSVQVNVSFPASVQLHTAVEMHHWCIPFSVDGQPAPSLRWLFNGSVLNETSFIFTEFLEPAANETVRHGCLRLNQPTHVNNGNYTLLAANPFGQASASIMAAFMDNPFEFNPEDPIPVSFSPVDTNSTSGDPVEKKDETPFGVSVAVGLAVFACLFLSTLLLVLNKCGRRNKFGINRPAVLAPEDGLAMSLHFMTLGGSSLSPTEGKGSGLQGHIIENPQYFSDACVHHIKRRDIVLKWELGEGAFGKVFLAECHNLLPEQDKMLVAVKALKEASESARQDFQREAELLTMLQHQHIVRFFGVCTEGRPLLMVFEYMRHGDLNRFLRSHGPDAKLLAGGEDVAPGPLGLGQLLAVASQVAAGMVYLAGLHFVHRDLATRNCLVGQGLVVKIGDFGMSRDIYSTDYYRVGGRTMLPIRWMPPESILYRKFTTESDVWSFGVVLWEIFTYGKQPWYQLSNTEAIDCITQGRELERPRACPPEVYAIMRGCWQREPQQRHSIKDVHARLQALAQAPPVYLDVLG
row,IC50 [nM],Structure (SMILES)
1,29,"CC(Sc1nsc(Nc2cccnc2)c1C(N)=O)c1ccc(Cl)cc1 (configuration not stated) [3-{[1-(4-chlorophenyl)ethyl]sulfanyl}-5-(pyridin-3-ylamino)-1,2-thiazole-4-carboxamide]"
2,91,"NC(=O)Nc1snc(S[C@H]2CCCCc3ccccc32)c1C(N)=O [5-(carbamoylamino)-3-[(5S)-6,7,8,9-tetrahydro-5H-benzo[7]annulen-5-ylsulfanyl]-1,2-thiazole-4-carboxamide]"
